One molecule from patent US20110008802A1, “TNFalpha GENE EXPRESSION AS A BIOMARKER OF SENSITIVITY TO ANTAGONISTS OF INHIBITOR OF APOPTOSIS PROTEINS” (TETRALOGIC PHARMACEUTICALS CORP., priority 2007, published 2011) can be followed below.

The test system of data set [1] is OVCAR-8 cells. Kind of data set: MTT assay of compound C with or without TNFα blocking antibody, OVCAR-8 cells. The data set is classed as cell-based, human. The settings on record: compound C+anti-TNFα antibody (MAB610) vs compound C alone, 72 hrs. On the procedure: (§1) We have previously observed that our compounds promote rapid cIAP-1 degradation. Therefore, we hypothesized that degradation of cIAP-1 may result in autocrine activation of the death-receptor pathway by TNFα. To test this, we used TNFα blocking antibody in an MTT assay. Briefly, indicated ovarian cancer cell lines were seeded into 96-well cell culture plates at a density of 5,000 cells per well. The next day, anti-TNFα antibody (MAB610, R&D Systems, Minneapolis, Minn.) was added to cells at a final concentration of 10 µg/mL and allowed to incubate for 1 hr at 37° C., 5% CO2. Following incubation, a range of concentrations of the cIAP antagonist compound C was added to cells. Cells were incubated in the presence of compound C+anti-TNFα antibody or in the presence of compound C alone as a control for an additional 72 hrs. Following 72 hr incubation, MTT reagent (3-(4,5-dimethylthiazolyl-2)-2,5-diphenyltetrazolium bromide; SIGMA, St. Louis, Mo.) was added to all wells at a final concentration of 1 mg/mL and allowed to incubate for 2 hrs at 37° C., 5% CO2. Following a 2 hr incubation, all media was removed from wells and […] DMSO was added to solubilize formazan crystals. After a brief incubation at room temp on a microplate shaker, absorbance was measured at 570 nm using a Victor^2V fluorescent microplate reader (Perkin-Elmer, Turku, Finland). […]
In general terms: Tetrazolium assays rely on reduction of a dye to a coloured formazan, in cell work by metabolically active cells.

Data set [2] has as its system SKOV3 cells. Nature of the data set: MTT assay of compound C with or without TNFα blocking antibody, SKOV3 cells. The conditions noted are these: compound C+anti-TNFα antibody (MAB610) vs compound C alone, 72 hrs. The data set is classed as cell-based, human. On the procedure: as §1

Turning to `CN[C@@H](C)C(=O)N[C@H](C(=O)N1C[C@@H](O)C[C@H]1CC1=C(C2=C(C[C@@H]3C[C@H](O)CN3C(=O)[C@@H](NC(=O)[C@H](C)NC)[C@@H](C)OC)c3ccc(F)cc3C2)Cc2cc(F)ccc21)[C@@H](C)OC` [compound C], the “effect of anti-TNFα antibody on cIAP antagonist induced cytotoxicity (CC50 curve, FIG. 1)” value in data set [1] is given as “abrogates cIAP antagonist induced cytotoxicity”. Moreover, the “effect of anti-TNFα antibody on cIAP antagonist induced cytotoxicity (CC50 curve, FIG. 2)” value in data set [2] was “abrogates cIAP antagonist induced cytotoxicity”.
